Columns and labels:
ECs = details: stimulation with PAF; D'Humieres et al. (1986); cited from earlier work
endothelial cells (ECs) = assay: vWf release from ECs exposed directly to PAF or thrombin; details: for Increase in vWf release (%), BTP-dioxolane absent: 4 hours
Description: Synthetic PAF (1-O-alkyl-2-acetyl-sn-glyceryl-3-phosphorylcholine; Sigma #P-9525) prepared from bovine heart lecithin (Demopoulos et al. (1979) J. Biol. Chem. 254: 9355-358) was 99% pure by TLC analysis, HPLC analysis indicated this product consisted of 70% C16 and 13% C18 forms of PAF (Mita et al., (1989) Anal. Biochem. 180:131-135). After removal of chloroform, PAF was resuspended in DMEM/F12 culture medium containing 1% Nutridoma-HU (final protein concentration of 40 μM stock solution). After sonication for 3×1 minute periods, the PAF solution was diluted and used immediately.
Media with or without thrombin (@5 units/mL) served as positive and negative controls respectively. ECs were incubated for 1, 10, 20 or 30 minutes and 1, 2, 4, 6 and 24 hours in the PAF and thrombin time course studies. The EC conditioned media were recovered, centrifuged to remove any cell debris, and then frozen at -80° C. for a maximum period of 4 weeks prior to analyses. […] Where appropriate ECs were preincubated with BTP-dioxolane which was not cytotoxic to the cells as determined by the dye exclusion test.
Endothelial cells (ECs) were harvested from human umbilical cord vein as described by Jaffe et al. ((1973) Culture of Human Endothelial Cells Derived from Umbilical Veins: Identification by Morphologic and Immunologic Criteria, J. Clin. Invest. 52:2745-2756) and modified by Hashemi et al. (1990, supra). Endothelial cells were subcultured in 0.2% (w/v) gelatin-coated, 12-well Linbro™ polystyrene, tissue culture plates (Flow Laboratories, Mississauga, Ontario), then plated at a density of 1-2×10^4 /well and grown to confluence.
The standard consisted of a pool of plasma from 20 normal individuals previously determined to contain 1 unit of vWf per mL by the procedure of Zimmerman et al. (1977, J. Clin. Invest. 59:984-989). […] For some experiments, the maximum vWf that could be released was determined. Following incubation, the EC conditioned media were recovered and fresh media containing 0.05% (v/v) Tween 20 and 10 μM each of the protease inhibitors D-phenylalanyl-phenylalanyl-arginyl-chloromethyl ketone, D-phenylalanyl-propyl-arginyl-chloromethyl ketone and 1,5-Dansyl-glutamyl-glycyl-arginyl-chloromethyl ketone were added to the EC monolayers of each corresponding well. The cells were freeze-thawed three times and, to assure complete breakdown of the cell membranes as well as the Weibel-Palade bodies, disrupted in a glass homogenizer using a motor-driven teflon pestle. After centrifugation, total vWf concentration was determined in the supernatants.
In order to examine the responsiveness of ECs to direct PAF exposure, we incubated the monolayers of ECs with 0-300 pico molar (pM) PAF for a period of 4 hours at 37° C. and determined the amount of vWf released into the EC media. […] To determine the time course of PAF effects on vWf release, 300 pM PAF was incubated with monolayers of ECs for 1, 10, 20 and 30 minutes as well as for 1, 2, 4, 6 and 24 hours. […] As a control, the vWf release from thrombin stimulated ECs was also determined (FIG. 5).

[1] = Stability of PAF in stored monocyte conditioned media; format: physicochemical; details: -80° C., various periods of time; within experimental error
Description: In addition, PAF was extracted from the monocyte supernatants and assayed using the following highly specific and sensitive radioimmunoassay. As the most predominant bioactive forms of PAF secreted by monocytes are the C16 and C18 alkyl moieties (Sugiura and Waku, (1987) Platelet-Activating Factor and Related Lipid Mediators, F. Snyder Ed. Plenum Press, N.Y. 55-85; Prescott et al. (1990) Proc. Natl. Acad. Sci. U.S.A. 81:3534-3538), PAF was quantitated using the highly specific and sensitive ^125 I-RIA kit manufactured by NEN Research Products (Du Pont Canada, Mississauga, Ontario, Canada) following extraction of the monocyte supernatants with 5 mL each of methanol and chloroform and 3.5 mL of water per mL of sample. The recovered chloroform layers, dried under nitrogen, were reconstituted in the PAF assay kit buffer prior to analysis. […] Recoveries of PAF (90±1%, n=>130) were assessed by adding trace amounts of ^3 H-PAF to the sample prior to extraction and determining the % recoveries using a liquid scintillation counter (Model-7000, Beckman Instruments Canada). Iodinated samples were counted on a Beckman Gamma 5500 counter (Beckman Instruments, Fullerton, Calif.). […]

For “1-O-alkyl-2-acetyl-sn-glyceryl-3-phosphorylcholine [PAF]”, the “PGI2 release from ECs” value (ECs) is listed as “release PGI2 in response to stimulation”, the “vWf release from ECs (maximal)” value (endothelial cells (ECs); 300 pM PAF, 30 minutes, P<0.05, n=5) is listed as 151% and the “vWf release as share of the maximal vWf recoverable” value (endothelial cells (ECs); 300 pM PAF, 30 minutes, […]) is listed as ~ 4%. For the same substance, the “time course of vWf release from ECs” value (endothelial cells (ECs); 300 pM PAF, FIG. 5) was “released vWf at all time points up to 24 hours”, the “PAF concentration range of greatest vWf release response” value (endothelial cells (ECs); FIG. 4, 4 hours at 37° C., n=5) was 100 to 300 pM and the “Increase in vWf release (%), BTP-dioxolane absent” value (endothelial cells (ECs); PAF 100 pM, n=5) was 190.8 ± 46.6%. The “Increase in vWf release (%), BTP-dioxolane absent” value (endothelial cells (ECs); PAF 300 pM, n=5) was 204.2 ± 48.7% and the “PAF values in monocyte conditioned media after storage” value [1] was “gave the same values”.
